Laboratory results as given in US20230085307A1, “PYRIDAZINONE COMPOUND AND HERBICIDE” (NISSAN CHEMICAL CORPORATION, priority 2019, published 2023).

Legend:
[1] = test system: Japanese bulrush; assay: Test Example 1: herbicidal activity, application before weed generation under submerged conditions (Table 16, symbol B); type: in vivo, Japanese bulrush (Schoenoplectus juncoides); details: 320 g/ha applied herbicide
Method in brief: (§1)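 Alluvial soil was flooded to 4 cm depth, weed seeds were sown mixed and 2.5-leaf rice seedlings were transplanted. On sowing day, the compound's emulsion, diluted in water to a set dose, was applied to the water surface. Plants grew at 25–30 °C and were scored 0–5 after three weeks.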

[2] = test system: velvetleaf; assay: Test Example 5: herbicidal effect by foliage application, plastic box (Table 20, symbol M); type: in vivo, velvetleaf (Abutilon theophrasti); details: foliage application, AAH 320 g/ha, evaluated three weeks after application
Method in brief: (§2)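 Post-emergence foliar test in sterilized diluvial soil. Compound applied as water-diluted emulsion at a predetermined rate to 14-day-old plants; evaluation at three weeks.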

[3] = test system: lambsquarters; assay: Test Example 4: herbicidal effect by soil treatment (Table 19, symbol O); type: in vivo, lambsquarters (Chenopodium album); details: amount of applied herbicide 320 g/ha
Method in brief: (§3)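 Emulsion of test compound, water-diluted to predetermined amount, sprayed on soil after sowing (seed depth ~1.5 cm, sterilized diluvial soil). Greenhouse, 25–30° C. Effect graded at three weeks post-spray.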

[4] = test system: blackgrass; assay: Test Example 5: herbicidal effect by foliage application, plastic box (Table 20, symbol J); type: in vivo, blackgrass (Alopecurus myosuroides); details: foliage application, AAH 320 g/ha, evaluated three weeks after application
Method in brief: as §2

[5] = test system: Italian ryegrass; assay: Test Example 5: herbicidal effect by foliage application, plastic box (Table 20, symbol K); type: in vivo, Italian ryegrass (Lolium multiflorum); details: foliage application, AAH 320 g/ha, evaluated three weeks after application
Method in brief: as §2

[6] = test system: southern crabgrass; assay: Test Example 4: herbicidal effect by soil treatment (Table 19, symbol F); type: in vivo, southern crabgrass (Digitaria ciliaris); details: amount of applied herbicide 320 g/ha
Method in brief: as §3

[7] = test system: wild oat; assay: Test Example 5: herbicidal effect by foliage application, plastic box (Table 20, symbol I); type: in vivo, wild oat (Avena fatua); details: foliage application, AAH 320 g/ha, evaluated three weeks after application
Method in brief: as §2

[8] = test system: Italian ryegrass; assay: Test Example 4: herbicidal effect by soil treatment (Table 19, symbol K); type: in vivo, Italian ryegrass (Lolium multiflorum); details: amount of applied herbicide 320 g/ha
Method in brief: as §3

[9] = test system: barnyard grass; assay: Test Example 5: herbicidal effect by foliage application, plastic box (Table 20, symbol H); type: in vivo, barnyard grass (Echinochloa crus-galli); details: foliage application, AAH 320 g/ha, evaluated three weeks after application
Method in brief: as §2

[10] = test system: chickweed; assay: Test Example 4: herbicidal effect by soil treatment (Table 19, symbol P); type: in vivo, common chickweed (Stellaria media); details: amount of applied herbicide 320 g/ha
Method in brief: as §3

[11] = test system: late watergrass; assay: Test Example 2: herbicidal activity, application during weed generation under submerged conditions (Table 17, symbol A); type: in vivo, late watergrass (Echinochloa oryzicola); details: AAH 320 g/ha; application during weed generation, submerged conditions
Method in brief: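 Wagner pot, alluvial soil, 4 cm flood; mixed sowing of all species; greenhouse 25° C.–30° C. Emulsifiable formulation, water-diluted to predetermined dose, applied to paddy water at 1–2 leaf stage. Effect rated at 3 wk using the earlier test's scoring criteria.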

[12] = test system: green foxtail; assay: Test Example 5: herbicidal effect by foliage application, plastic box (Table 20, symbol G); type: in vivo, green foxtail (Setaria viridis); details: foliage application, AAH 320 g/ha, evaluated three weeks after application
Method in brief: as §2

[13] = test system: wild oat; assay: Test Example 4: herbicidal effect by soil treatment (Table 19, symbol I); type: in vivo, wild oat (Avena fatua); details: amount of applied herbicide 320 g/ha
Method in brief: as §3

[14] = test system: rice flat sedge; assay: Test Example 3: herbicidal effect by foliage application, Wagner pot (Table 18, symbol E); type: in vivo, rice flat sedge (Cyperus iria); details: amount of applied herbicide 320 g/ha
Method in brief: (§4)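 Plants were sown in alluvial soil held under 0.1–0.5 cm standing water and grown 14 days in a greenhouse at 25–30 °C. An emulsifiable formulation, water-diluted to the set dose, was then sprayed onto the foliage, and effects were scored three weeks later using previously defined criteria.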

[15] = test system: late watergrass; assay: Test Example 1: herbicidal activity, application before weed generation under submerged conditions (Table 16, symbol A); type: in vivo, late watergrass (Echinochloa oryzicola); details: 320 g/ha applied herbicide
Method in brief: as §1

[16] = test system: Chinese sprangletop; assay: Test Example 3: herbicidal effect by foliage application, Wagner pot (Table 18, symbol D); type: in vivo, chinese sprangletop (Leptochloa chinensis); details: amount of applied herbicide 320 g/ha
Method in brief: as §4

[17] = test system: windgrass; assay: Test Example 4: herbicidal effect by soil treatment (Table 19, symbol L); type: in vivo, windgrass (Apera spica-venti); details: amount of applied herbicide 320 g/ha
Method in brief: as §3

Row | Compound | Herbicidal effect on B: Japanese bulrush (grade 0-5) [1] | M: velvetleaf, herbicidal effect (criteria 0-5) [2] | herbicidal effect on O: lambsquarters [3] | J: blackgrass, herbicidal effect (criteria 0-5) [4] | K: Italian ryegrass, herbicidal effect (criteria 0-5) [5] | herbicidal effect on F: southern crabgrass [6] | I: wild oat, herbicidal effect (criteria 0-5) [7] | herbicidal effect on K: Italian ryegrass [8] | H: barnyard grass, herbicidal effect (criteria 0-5) [9] | herbicidal effect on P: chickweed [10] | herbicidal effect rating, A: late watergrass [11] | G: green foxtail, herbicidal effect (criteria 0-5) [12] | herbicidal effect on I: wild oat [13] | herbicidal effect on E: rice flat sedge [14] | Herbicidal effect on A: late watergrass (grade 0-5) [15] | herbicidal effect on D: Chinese sprangletop [16] | herbicidal effect on L: windgrass [17]
1 | Cc1nn(C)c(=O)c(-c2c(-c3ccc(OC(F)F)cc3)sc3ccc(F)cc23)c1OC(=O)c1ccco1 [2-287] | 4 (Herbicidal rate of 70% or more and less than 90%) | 5 (Herbicidal rate of 90% or more (almost completely withered)) | 5 (Herbicidal rate of 90% or more (almost completely withered)) | 5 (Herbicidal rate of 90% or more (almost completely withered)) | 5 (Herbicidal rate of 90% or more (almost completely withered)) | 4 (Herbicidal rate of 70% or more and less than 90%) | 3 (Herbicidal rate of 40% or more and less than 70%) | 5 (Herbicidal rate of 90% or more (almost completely withered)) | 5 (Herbicidal rate of 90% or more (almost completely withered)) | 4 (Herbicidal rate of 70% or more and less than 90%) | 3 (Herbicidal rate of 40% or more and less than 70%) | 5 (Herbicidal rate of 90% or more (almost completely withered)) | 0 (Herbicidal rate of 5% or less (almost no effect)) | 5 (Herbicidal rate of 90% or more (almost completely withered)) | 5 (Herbicidal rate of 90% or more (almost completely withered)) | 3 (Herbicidal rate of 40% or more and less than 70%) | 3 (Herbicidal rate of 40% or more and less than 70%)
2 | Cc1nn(C)c(=O)c(-c2c(-c3ccc(OC(F)F)cc3)sc3ccc(F)cc23)c1OC(=O)C1CCCO1 (stereo not shown) [2-289] | 3 (Herbicidal rate of 40% or more and less than 70%) | 5 (Herbicidal rate of 90% or more (almost completely withered)) | 5 (Herbicidal rate of 90% or more (almost completely withered)) | 4 (Herbicidal rate of 70% or more and less than 90%) | 5 (Herbicidal rate of 90% or more (almost completely withered)) | 5 (Herbicidal rate of 90% or more (almost completely withered)) | 4 (Herbicidal rate of 70% or more and less than 90%) | 5 (Herbicidal rate of 90% or more (almost completely withered)) | 5 (Herbicidal rate of 90% or more (almost completely withered)) | 5 (Herbicidal rate of 90% or more (almost completely withered)) | 3 (Herbicidal rate of 40% or more and less than 70%) | 5 (Herbicidal rate of 90% or more (almost completely withered)) | 2 (Herbicidal rate of 20% or more and less than 40%) | 5 (Herbicidal rate of 90% or more (almost completely withered)) | 4 (Herbicidal rate of 70% or more and less than 90%) | 3 (Herbicidal rate of 40% or more and less than 70%) | 4 (Herbicidal rate of 70% or more and less than 90%)
